Test results taken from patent US20120095019A1 (priority 2010, published 2012).
“And” between values parts separate entries of the source, which are not always exact repeats. Identical values can stand only once. “Also recorded” adds a separate entry of the source.

What was measured:
[1] = 3-period crossover study of betrixaban and digoxin alone and in combination for 7 days in healthy subjects; type: in vivo, human
From the text: For each period, subjects reported to the clinical research unit on the day prior to Day 1 and remained there until Day 8 (at least until the last blood sample collection). The total duration of the study for each subject was 14 weeks: up to 4 weeks predose, approximately 1 week in the study unit on 3 occasions (with each treatment period separated by an approximate 2-week washout [i.e., 12 to 14 days]), and up to 3 weeks after the last dose until the Termination Visit. Serial blood samples and interval urine collections were obtained over the last dosing interval (Day 7 to 8) during each study period. Routine safety laboratory data was obtained at baseline during and after drug administration; additional safety laboratory and clinical data were collected.
All doses were taken under fasting conditions (no food starting from the midnight before dosing and continuing until 2 hours postdose).
Safety assessments included electrocardiogram (ECG) intervals, vital signs, laboratory parameters, and adverse events (AEs).
Mean and individual concentration-versus-time curves were plotted. […]
The 90% confidence intervals (CIs) for the difference in least squares means (test-reference, where test=drugs in combination and reference=drugs alone) was calculated for each parameter. […]

[2] = 2-way crossover study of single-dose betrixaban alone and following 5 days of ketoconazole in healthy subjects (plasma/urine PK, safety); type: in vivo, human; conditions: for Cmax: ketoconazole Cmax
From the text: Blood and urine samples were obtained at specific time intervals after dosing for pharmacokinetic evaluations.
For each subject, the total duration of the study was up to 11 weeks (4 weeks predose, 1 week in the study unit on 2 occasions separated by a 12- to 14-day washout period, and 3 weeks after the last dose until the termination visit).
Safety was monitored by adverse event monitoring, clinical laboratory testing (hematology, serum chemistry, and urinalysis), vital sign measurements (oral temperature, respiratory rate, pulse rate, and systolic and diastolic blood pressure), electrocardiograms, and physical examinations.

Structure (SMILES) | effect of co-administration of betrixaban on digoxin PK ([1]; 7 days) | Tmax ([1]; human, plasma, oral, digoxin median tmax, second value of pair (digoxin alone by order)) | ketoconazole CL/F, mean (SD) ([2]; Day 1) | ketoconazole trough concentration, least squares geometric mean ([2]; Day 1 12 hours) | ketoconazole trough concentration, least squares geometric mean ([2]; Day 1 predose) | ketoconazole CL/F, mean (SD) ([2]; Day-1) | ketoconazole trough concentration, least squares geometric mean ([2]; Day-1 predose) | increased exposure of ketoconazole [Cmax and AUC(0-12)] when given with betrixaban ([2]; human, in vivo) | Tmax ([2]; human, plasma, oral) | Tmax ([2]; human, plasma, oral, 200 mg) | AUC(0-t) ([2]; human, plasma, oral, 200 mg, ketoconazole AUC(0-12), geometric LS mean, Treatment R: ketoconazole 200 mg alone) | Cmax ([2]; human, plasma, oral, 200 mg, geometric LS mean, Treatment R: ketoconazole 200 mg alone) | Cmax ([2]; human, plasma, oral, 200 mg, mean (SD), Day-1) | AUC(0-t) ([2]; human, plasma, oral, 200 mg, ketoconazole plasma AUC(0-12), mean (SD), Day-1) | concentration at 12 h ([2]; human, plasma, oral, 200 mg, Day-1 12 hours) | AUC(0-t) ([2]; human, plasma, oral, ketoconazole AUC(0-12), geometric LS mean, Treatment T: ketoconazole 200 mg co-administered with 40-mg betrixaban) | Cmax ([2]; human, plasma, oral, geometric LS mean, Treatment T: ketoconazole 200 mg co-administered with 40-mg betrixaban) | Cmax ([2]; human, plasma, oral, mean (SD), Day 1 (day of betrixaban administration))
C[C@H]1O[C@@H](O[C@H]2[C@@H](O)C[C@H](O[C@H]3[C@@H](O)C[C@H](O[C@H]4CC[C@@]5(C)[C@H](CC[C@@H]6[C@@H]5C[C@@H](O)[C@]5(C)[C@@H](C7=CC(=O)OC7)CC[C@]65O)C4)O[C@@H]3C)O[C@@H]2C)C[C@H](O)[C@@H]1O [digoxin] | no impact; also recorded: no effect | 1.01 h |  |  |  |  |  |  |  |  |  |  |  |  |  |  |  | 
CC(=O)N1CCN(c2ccc(OCC3COC(Cn4ccnc4)(c4ccc(Cl)cc4Cl)O3)cc2)CC1 (stereo not drawn) [ketoconazole] |  |  | 5.717 (2.373) L/h | 769 ng/mL | 1030 ng/mL | 7.954 (7.110) L/h | 1250 ng/mL | 21-22% and ~20% | 2 h | 2 h | 30900 ng·h/mL | 5260 ng/mL | 5900 ng/mL | 35300 ng·h/mL | 697 ng/mL | 37300 ng·h/mL | 6420 ng/mL | 6620 ng/mL
